Broadly, the Ki is a measure of affinity in units of concentration, obtained from inhibition or displacement.

The values that follow come from BindingDB's records for doi:10.1021/bi990204w (National Institute of Diabetes and Digestive and Kidney …, 1999).

In experiment [1] the target is T1, Bombesin receptor subtype-3 (Homo sapiens, UniProt P32247).
T1 sequence (P32247 whole entry): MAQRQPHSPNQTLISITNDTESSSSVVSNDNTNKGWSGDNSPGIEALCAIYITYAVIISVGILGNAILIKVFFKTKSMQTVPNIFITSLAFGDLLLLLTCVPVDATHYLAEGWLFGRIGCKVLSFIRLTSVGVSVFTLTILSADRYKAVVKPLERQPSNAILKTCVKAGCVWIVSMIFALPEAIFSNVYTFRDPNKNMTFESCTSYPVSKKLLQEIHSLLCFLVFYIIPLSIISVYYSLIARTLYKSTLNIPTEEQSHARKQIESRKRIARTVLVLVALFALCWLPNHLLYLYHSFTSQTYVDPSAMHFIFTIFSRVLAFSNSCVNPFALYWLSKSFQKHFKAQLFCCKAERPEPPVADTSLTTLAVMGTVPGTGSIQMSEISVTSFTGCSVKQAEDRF

The target in experiment [2] is Gastrin-releasing peptide receptor (Rattus norvegicus, UniProt P52500).
The target of experiment [3] is T2, Neuromedin-B receptor (Rattus norvegicus, UniProt P24053).
T2 sequence (P24053 whole entry): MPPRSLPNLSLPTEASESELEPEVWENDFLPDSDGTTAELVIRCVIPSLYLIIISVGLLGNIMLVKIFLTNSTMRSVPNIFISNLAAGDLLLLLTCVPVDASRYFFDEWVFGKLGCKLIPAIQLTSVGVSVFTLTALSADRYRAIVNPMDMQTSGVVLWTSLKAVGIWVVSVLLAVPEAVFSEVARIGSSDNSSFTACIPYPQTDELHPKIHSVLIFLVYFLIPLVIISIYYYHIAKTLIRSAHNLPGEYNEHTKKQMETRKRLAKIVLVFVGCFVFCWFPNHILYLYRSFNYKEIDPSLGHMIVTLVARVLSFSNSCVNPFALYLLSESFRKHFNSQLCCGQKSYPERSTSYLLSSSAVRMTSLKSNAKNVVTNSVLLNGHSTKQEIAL

Where a SMILES comes first, the peptide text is derived from it. [ ]: non-standard residue; d: D form. The star is where a group is joined. dProψ(CH2NH)PheNH2 = NC(=O)[C@H](Cc1ccccc1)NC[C@H]1CCCN1*; Hydrocinnamoyl = O=C(CCc1ccccc1)*; pGlu = O=C1CC[C@@H](C(=O)O)N1 Bounds are passed on as bounds.

Sequence of Gastrin-releasing peptide receptor (P52500 whole entry N28S): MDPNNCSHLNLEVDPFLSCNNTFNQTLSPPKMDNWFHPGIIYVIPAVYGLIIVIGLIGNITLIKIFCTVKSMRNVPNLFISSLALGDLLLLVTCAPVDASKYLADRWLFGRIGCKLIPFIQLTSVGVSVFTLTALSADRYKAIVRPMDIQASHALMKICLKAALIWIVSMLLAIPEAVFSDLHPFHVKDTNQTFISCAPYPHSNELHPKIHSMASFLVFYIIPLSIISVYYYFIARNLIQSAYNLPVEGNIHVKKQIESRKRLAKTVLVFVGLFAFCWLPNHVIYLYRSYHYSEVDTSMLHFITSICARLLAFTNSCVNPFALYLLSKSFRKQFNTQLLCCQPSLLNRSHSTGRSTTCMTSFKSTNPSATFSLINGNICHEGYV

Consider `CSCC[C@H](NC(=O)[C@H](Cc1ccccc1)NC(=O)[C@H](Cc1cnc[nH]1)NC(=O)CNC(=O)[C@@H](NC(=O)[C@H](CCCN=C(N)N)NC(=O)[C@H](Cc1c[nH]c2ccccc12)NC(=O)[C@H](CCC(N)=O)NC(=O)[C@H](CC(N)=O)NC(=O)CNC(=O)[C@H](CC(C)C)NC(=O)[C@H](CO)NC(=O)[C@H](CCC(N)=O)NC(=O)[C@@H]1CCC(=O)N1)C(C)C)C(N)=O` [CAS_31362-50-2] ([pGlu]QSLGNQWRVGHFM-NH2), for which the Ki is 7100 nM in experiment [1], 3200 nM in experiment [2] and more than 10000 nM in experiment [3].

`CSCC[C@H](NC(=O)[C@H](CC(C)C)NC(=O)[C@H](Cc1cnc[nH]1)NC(=O)CNC(=O)[C@@H](NC(=O)[C@H](C)NC(=O)[C@H](Cc1c[nH]c2ccccc12)NC(=O)[C@H](CCC(N)=O)NC(=O)[C@H](N)Cc1ccccc1)C(C)C)C(N)=O` [DPhe6-Bn[6-14)]: the Ki is more than 10000 nM in experiment [1], 2 nM in experiment [2] and 14 nM in experiment [3].

For `CCCCCCNC(=O)[C@H](CC(C)C)NC(=O)[C@H](Cc1cnc[nH]1)NC(=O)CNC(=O)[C@@H](NC(=O)[C@H](C)NC(=O)[C@H](Cc1c[nH]c2ccccc12)NC(=O)[C@H](CCC(N)=O)NC(=O)[C@H](N)Cc1ccccc1)C(C)C` [DPhe6-Bn(6-13)hexylamide], the Ki is 3200 nM in experiment [1], 100 nM in experiment [2] and more than 10000 nM in experiment [3].

For the compound `CSCC[C@H](NC(=O)[C@H](Cc1ccccc1)NC(=O)[C@H](Cc1c[nH]cn1)NC(=O)CNC(=O)[C@@H](NC(=O)[C@H](C)NC(=O)[C@H](Cc1c[nH]c2ccccc12)NC(=O)[C@H](CC(C)C)NC(=O)[C@@H]1CCC(=O)N1)[C@@H](C)O)C(N)=O` [CAS_125988], the Ki is 3100 nM in experiment [1], 31 nM in experiment [2] and 460 nM in experiment [3].

With `CSCC[C@H](NC(=O)[C@H](CC(C)C)NC(=O)[C@H](Cc1cnc[nH]1)NC(=O)CNC(=O)[C@@H](NC(=O)[C@H](C)NC(=O)[C@H](Cc1c[nH]c2ccccc12)NC(=O)[C@H](Cc1cnc[nH]1)NC(=O)[C@H](CC(N)=O)NC(=O)CN)C(C)C)C(N)=O` [GRP-10,frog], the Ki in experiment [1] is more than 10000 nM; in experiment [2], 130 nM; in experiment [3], more than 10000 nM.

As to H-EGGGPQWAVGHFM-NH2 [PG-L], the values for the Ki in experiment [1], in experiment [2] and in experiment [3] were 5300 nM, 3 nM and 210 nM, respectively.

On to `CSCC[C@H](NC(=O)[C@H](CC(C)C)NC(=O)[C@H](Cc1c[nH]cn1)NC(=O)CNC(=O)[C@@H](NC(=O)[C@H](C)NC(=O)[C@H](Cc1c[nH]c2ccccc12)NC(=O)[C@H](Cc1c[nH]cn1)NC(=O)[C@H](CC(N)=O)NC(=O)CNC(=O)[C@H](CCCN=C(N)N)NC(=O)[C@@H]1CCCN1C(=O)[C@H](Cc1ccc(O)cc1)NC(=O)[C@H](CCSC)NC(=O)[C@H](CCCCN)NC(=O)[C@@H](NC(=O)[C@H](CC(C)C)NC(=O)[C@@H](NC(=O)[C@@H](NC(=O)CNC(=O)CNC(=O)CNC(=O)[C@H](C)NC(=O)[C@@H]1CCCN1C(=O)[C@H](CC(C)C)NC(=O)[C@@H]1CCCN1C(=O)[C@@H](N)C(C)C)[C@@H](C)O)C(C)C)[C@@H](C)O)C(C)C)C(N)=O` [CAS_93755-85-2], for which the Ki in experiment [1] was more than 10000 nM; in experiment [3], 440 nM.

Consider `CSCC[C@H](NC(=O)[C@H](CC(C)C)NC(=O)[C@@H](Cc1ccccc1)NC(=O)CNC(=O)[C@@H](NC(=O)[C@H](C)NC(=O)[C@H](Cc1c[nH]c2ccccc12)NC(=O)[C@H](CCC(N)=O)NC(=O)[C@H](CC(N)=O)NC(=O)CNC(=O)[C@H](CC(C)C)NC(=O)[C@H](CCCN=C(N)N)NC(=O)[C@H](CCC(N)=O)NC(=O)[C@@H]1CCC(=O)N1)C(C)C)C(N)=O` [Dphe12-Bn], for which the Ki in experiment [1] was more than 10000 nM; in experiment [2] it was more than 10000 nM; in experiment [3] it was 1900 nM.

With `CC(C)C[C@@H](CN[C@@H](Cc1ccc(Cl)cc1)C(N)=O)NC(=O)[C@H](Cc1c[nH]cn1)NC(=O)CNC(=O)[C@@H](NC(=O)[C@H](C)NC(=O)[C@H](Cc1c[nH]c2ccccc12)NC(=O)[C@H](CCC(N)=O)NC(=O)[C@H](N)Cc1ccccc1)C(C)C` [DPhe6,Leu13,Psi(CH2NH),Cpa14-Bn(6-14)], the Ki in experiment [1] is more than 10000 nM; in experiment [2], 42 nM; in experiment [3] it was 2700 nM.

On to `CSCC[C@H](NC(=O)[C@H](Cc1ccccc1)NC(=O)[C@H](Cc1cnc[nH]1)NC(=O)CNC(=O)[C@@H](NC(=O)[C@H](C)NC(=O)[C@H](Cc1c[nH]c2ccccc12)NC(=O)[C@H](CCC(N)=O)NC(=O)[C@H](CC(N)=O)NC(=O)CNC(=O)[C@H](CC(C)C)NC(=O)[C@H](CCCN=C(N)N)NC(=O)[C@H](CCC(N)=O)NC(=O)[C@@H]1CCC(=O)N1)C(C)C)C(N)=O` [Bombesin,Phe13], for which the Ki turned out to be 6600 nM in experiment [1], 0.77 nM in experiment [2] and 6 nM in experiment [3].

`CC(C)C[C@H](NC(=O)[C@H](Cc1cnc[nH]1)NC(=O)CNC(=O)[C@@H](NC(=O)[C@H](C)NC(=O)[C@H](Cc1c[nH]c2ccccc12)NC(=O)[C@H](CCC(N)=O)NC(=O)[C@H](N)Cc1ccccc1)C(C)C)C(=O)NN(C)C` [DPhe6-Bn(6-13)NHN(ME)2]: the Ki in experiment [1] was more than 10000 nM; in experiment [2] it was 3200 nM; in experiment [3] it was more than 10000 nM.

`CCCCNC(=O)[C@H](CC(C)C)NC(=O)[C@H](Cc1cnc[nH]1)NC(=O)[C@@H](C)NC(=O)[C@@H](NC(=O)[C@H](C)NC(=O)[C@H](Cc1c[nH]c2ccccc12)NC(=O)[C@H](CCC(N)=O)NC(=O)[C@H](N)Cc1ccc(O)cc1)C(C)C` [DTyr6,DAla11-Bn(6-13)butylamide]: the results for the Ki in experiment [1], in experiment [2] and in experiment [3] were 5300 nM, 6 nM and 2300 nM, respectively.

Regarding `CSCC[C@H](NC(=O)[C@H](CC(C)C)NC(=O)[C@H](CO)NC(=O)CNC(=O)[C@@H](NC(=O)[C@H](C)NC(=O)[C@H](Cc1c[nH]c2ccccc12)NC(=O)[C@H](CC(C)C)NC(=O)[C@@H]1CCC(=O)N1)C(C)C)C(N)=O` [Leu8-phyllolitorin] ([pGlu]LWAVGSLM-NH2), the values for the Ki in experiment [1], in experiment [2] and in experiment [3] were 5400 nM, 420 nM and more than 10000 nM, respectively.

As to `CC(C)C[C@H](NC(=O)[C@H](Cc1cnc[nH]1)NC(=O)CNC(=O)[C@@H](NC(=O)[C@H](C)NC(=O)[C@H](Cc1c[nH]c2ccccc12)NC(=O)[C@H](CCC(N)=O)NC(=O)[C@H](N)Cc1ccccc1)C(C)C)C(N)=O` [DPhe6-Bn(6-13)NH2], the Ki was more than 10000 nM in experiment [1], 27 nM in experiment [2] and more than 10000 nM in experiment [3].

Regarding `COC(=O)[C@H](CC(C)C)NC(=O)[C@H](Cc1cnc[nH]1)NC(=O)CNC(=O)[C@@H](NC(=O)[C@H](C)NC(=O)[C@H](Cc1c[nH]c2ccccc12)NC(=O)[C@H](CCC(N)=O)NC(=O)[C@H](N)Cc1ccccc1)C(C)C` [DPhe6-Bn(6-13)methylester], the Ki in experiment [1] is 5300 nM; in experiment [2], 10 nM; in experiment [3], 7700 nM.

As for `CSCCC(NC(=O)C(CC(C)C)NC(=O)C(Cc1cnc[nH]1)NC(=O)CNC(=O)C(NC(=O)C(C)NC(=O)C(Cc1c[nH]c2ccccc12)NC(=O)C(Cc1cnc[nH]1)NC(=O)C(CC(N)=O)NC(=O)CN)C(C)C)C(N)=O` (stereo not drawn) [NSC_5486814], the Ki in experiment [1] was more than 10000 nM; in experiment [2], 20 nM; in experiment [3], 140 nM.

With `CC(C)[C@H](NC(=O)[C@H](C)NC(=O)[C@H](Cc1c[nH]c2ccccc12)NC(=O)[C@H](Cc1cnc[nH]1)NC(=O)CCc1ccccc1)C(=O)N[C@H](C)C(=O)N[C@@H](Cc1cnc[nH]1)C(=O)N1CCC[C@@H]1CN[C@@H](Cc1ccccc1)C(N)=O` [CAS_l] (Hydrocinnamoyl-HWAV[dA]H-{dProψ(CH2NH)PheNH2}), the figures for the inhibitory constant (Ki) in experiment [2] and in experiment [3] were 0.74 nM and more than 10000 nM, respectively.

With `CCCNC(=O)[C@H](CC(C)C)NC(=O)[C@H](Cc1cnc[nH]1)NC(=O)CNC(=O)[C@@H](NC(=O)[C@H](C)NC(=O)[C@H](Cc1c[nH]c2ccccc12)NC(=O)[C@H](CCC(N)=O)NC(=O)[C@H](N)Cc1ccccc1)C(C)C` [DPhe6-Bn(6-13)propylamide], the figures for the Ki in experiment [1], in experiment [2] and in experiment [3] were 1900 nM, 6 nM and 4600 nM, respectively.

Turning to `CSCC[C@H](NC(=O)[C@H](Cc1ccccc1)NC(=O)[C@H](CO)NC(=O)CNC(=O)[C@@H](NC(=O)[C@H](C)NC(=O)[C@H](Cc1c[nH]c2ccccc12)NC(=O)[C@H](CC(C)C)NC(=O)[C@@H]1CCC(=O)N1)C(C)C)C(N)=O` [NSC_5748287], the Ki in experiment [1] turned out to be 2100 nM; in experiment [2], 240 nM; in experiment [3], 47 nM.

In the case of `CSCC[C@H](NC(=O)[C@@H](Cc1c[nH]c2ccccc12)NC(=O)[C@@H](Cc1c[nH]c2ccccc12)NC(=O)[C@H](Cc1ccccc1)NC(=O)[C@@H](Cc1c[nH]c2ccccc12)NC(=O)[C@H](CCC(N)=O)NC(=O)[C@H](CCC(N)=O)NC(=O)[C@H]1CCCN1)C(N)=O` [Substance P(4-11),[Dpro4,Dtrp7,9,10]] (H-[dP]QQ[dW]F[dW][dW]M-NH2), the Ki is 2300 nM in experiment [1], more than 10000 nM in experiment [2] and 2500 nM in experiment [3].
